Ends that are not written are not given here. * marks the point of attachment. Octanoyl = CCCCCCCC(=O)*
Columns and labels:
[1] = system: 24-month-old (aged) rats with LPS injection; test: LPS-induced endotoxemia in aged rats treated with GH with or without ghrelin; format: in vivo, rat; conditions: 4 h after LPS 15 mg/kg BW, ghrelin 20 nmol/kg BW and/or GH 25 μg/kg BW bolus 30 min prior to LPS
Experimental: To determine whether GH sensitizes Ghrelin's anti-inflammatory effects, GH was administered (25 μg/kg BW, a bolus at 30 min prior to LPS injection) with or without ghrelin (20 nmol/kg BW, a bolus at 30 min prior to LPS injection) in 24-month-old (aged) rats with LPS injection (15 mg/kg BW). […] Similarly, organ injury indicators such as AST and ALT were attenuated only following co-administration of ghrelin and GH after LPS injection in aged animals (FIG. 9C-D).

brain ghrelin receptor = test: Effect of GH on central ghrelin receptor expression and parasympathetic neuronal activity; format: in vivo; conditions: no data given
[2] = system: male 3-month-old (young) rats subjected to sepsis by CLP; format: in vivo
Experimental: Protective effects of ghrelin in young septic animals: This study was designed to determine whether ghrelin by itself can attenuate sepsis-induced inflammatory responses, cardiovascular responses, tissue injury, and mortality in young animals. To study this, male 3-month-old (young) rats were subjected to sepsis by CLP. At 5 h after CLP, a bolus IV injection of ghrelin (6 nmol/kg BW) was followed by a continuous infusion of ghrelin (40 nmol/kg BW) via a primed 200-μl Alzet mini-pump for 15 h. 20 h after CLP (i.e., severe sepsis), plasma levels of TNF-α, IL-6, and HMGB-1 were determined. Cardiac output (CO), stoke volume (SV), total peripheral resistance (TPR), and organ blood flow (BF) were measured using radioactive microspheres. Moreover, tissue injury indicators such as plasma levels of lactate and creatinine, as well as lung water content (edema) were determined. In additional groups of animals, the necrotic cecum was excised at 20 h after CLP, and a 10-day survival was recorded. […] Thus, ghrelin may provide a novel approach for anti-sepsis therapy in the young population. […] This also confirms that ghrelin can cross the blood-brain barrier to produce its beneficial effect centrally, thus reducing proinflammatory cytokines in sepsis. […] Plasma levels of TNF-α were measured at 1 h after LPS injection. […] However, due to the presence of central ghrelin hyporesponsiveness in aged animals, it is most likely that treatment with ghrelin alone will not produce desirable beneficial results in the geriatric population.

[3] = system: rats exposed to whole body irradiation followed by CLP; test: Radiation combined injury (RCI): 5-Gy whole body irradiation followed by CLP; format: in vivo, rat
Experimental: Rats were exposed to 5-Gy whole body irradiation followed by cecal ligation and puncture (CLP) 48 h thereafter. Human ghrelin (30 nmol) or vehicle (saline) was infused for 68 h after radiation exposure. At 20 h post-CLP, circulating tissue injury markers were measured. A 10-day survival study was also performed.

[4] = system: male 3-month-old (young) rats subjected to sepsis by CLP; conditions: sepsis in young animals; Wu et al., 2004; cited from earlier work
[5] = system: young rats with LPS injection; test: ICV administration of ghrelin prior to IV LPS injection (endotoxemia); conditions: ghrelin 3 nmol/kg BW ICV 30 min prior to IV LPS 15 mg/kg BW; 1 h after LPS
[6] = 20 h after CLP, ghrelin 6 nmol/kg BW IV bolus at 5 h + 40 nmol/kg BW infusion for 15 h
[7] = 20 h after CLP, radioactive microspheres
[8] = plasma, 20 h post-CLP, human ghrelin 30 nmol infused for 68 h after radiation, Mean ± SE, n = 4-6/group

Q: Which “plasma levels of IL-6” value [1] does the source give for “GH: Growth hormone; a ghrelin-sensitizing agent; preferred human forms SEQ ID NO:2-4” here?
A: Its value is “neither ghrelin nor GH alone significantly decreased”.

Q: And the “plasma levels of TNF-α” value [1]?
A: The value was “neither ghrelin nor GH alone significantly decreased”.

Q: What about the “brain ghrelin receptor expression” value (brain ghrelin receptor; aged animals (heading of b67)) of the same substance?
A: The value was “increases”.

Q: And the parasympathetic neuronal activity (brain ghrelin receptor)?
A: Its parasympathetic neuronal activity is “increases”.

Q: For “ghrelin: Endogenous ligand for the growth hormone secretagogue receptor; species form used in the LPS and CLP studies not stated (GSSFLSPEHQRVQQRKESKKPPAKLQPR; ends and bridges not checked; UniProt Q9UBU3 24-51, looked up)”, which “plasma levels of IL-6” value [1] is on record?
A: The value was “neither ghrelin nor GH alone significantly decreased”.

Q: And the “plasma levels of TNF-α” value [1]?
A: The value was “neither ghrelin nor GH alone significantly decreased”.

Q: What about the “survival of septic animals” value ([2]; 10-day survival, necrotic cecum excised at 20 h after CLP, control 35%, n=20/group) of the same substance?
A: The value was 65%.

Q: What about the “lung edema (lung water content)” value ([2]; 20 h after CLP) of the same substance?
A: Its value is “decreased”.

Q: What about the plasma creatinine ([2]; 20 h after CLP) of the same substance?
A: The plasma creatinine was “decreased”.

Q: What about the plasma lactate ([2]; 20 h after CLP) of the same substance?
A: Its plasma lactate is “decreased”.

Q: What about the “cytokine levels in peritoneal fluid” value ([2]; 20 h after CLP, data not shown) of the same substance?
A: The value was “markedly reduced”.

Q: What about the “plasma levels of HMGB-1” value [2, 6] of the same substance?
A: The value was “significantly reduced”.

Q: And the “plasma levels of IL-6” value [2, 6]?
A: The value was “significantly reduced”.

Q: And the “plasma levels of TNF-α” value [2, 6]?
A: Its value is “significantly reduced”.

Q: And the “cardiac output (CO)” value [2, 7]?
A: Its value is “increased”.

Q: And the “organ blood flow in the gut” value [2, 7]?
A: The value was “increased”.

Q: And the “organ blood flow in the kidneys” value [2, 7]?
A: Its value is “increased”.

Q: And the “organ blood flow in the liver” value [2, 7]?
A: The value was “increased”.

Q: And the “stroke volume (SV)” value [2, 7]?
A: Its value is “increased”.

Q: What about the “total peripheral resistance (TPR)” value [2, 7] of the same substance?
A: Its value is “reduced”.

Q: What about the brain ghrelin levels ([2]; rat, in vivo, iv) of the same substance?
A: The brain ghrelin levels was “restored the reduced brain ghrelin levels”.

Q: What about the “Gut MPO” value ([3]; 20 h post-CLP, human ghrelin 30 nmol infused for 68 h after radiation, Mean ± SE, n = 4-6/group) of the same substance?
A: The value was 14.0 ± 1.1 μU/mg.

Q: And the ALT [3, 8]?
A: The ALT was 42.3 ± 5.4 IU/L.

Q: And the AST [3, 8]?
A: Its AST is 70.7 ± 70.3 IU/L.

Q: What about the Creatinine [3, 8] of the same substance?
A: Its Creatinine is 1.60 ± 0.20 mg/dL.

Q: And the IL-6 [3, 8]?
A: The IL-6 was 817 ± 88 pg/mL.

Q: What about the LDH [3, 8] of the same substance?
A: The LDH was 1098 ± 88 U/L.

Q: What about the Lactate [3, 8] of the same substance?
A: The Lactate was 19.4 ± 0.8 mg/dL.

Q: And the TNF-α [3, 8]?
A: Its TNF-α is 41.8 ± 8.5 pg/mL.

Q: And the “circulating proinflammatory cytokines such as TNF-α and IL-6” value [4]?
A: The value was “significantly decreases”.

Q: And the “reduction of serum levels of TNF-α” value [5]?
A: The value was 65%.

Q: For “Human ghrelin: Human ghrelin; preferably GSSFLSPEHQRVQQRKESKKPPAKLQPR, S at position 3 n-octanoylated serine (SEQ ID NO:1) (GSS(Octanoyl)FLSPEHQRVQQRKESKKPPAKLQPR; listed as Homo sapiens)”, which survival ([3]; 10-day survival after RCI, vehicle 38%) is on record?
A: The survival was 69%.

Q: And the “decrease of the elevated injury markers in plasma” value ([3]; vs. RCI + vehicle, 20 h post-CLP)?
A: The value was 41-59%.

— US8324151B2, “Treatment of sepsis and septic shock using ghrelin and growth hormone” (The Feinstein Institute for Medical Research, priority 2007, dated 2012)
